≈ marks a conversion by molar mass, not a printed value. Square brackets hold non-standard residues; d marks the D form. Peptide text beside a SMILES is read from it.
Experiments:
bacterial strains = test: organism not typed; assay type: cell-based
Method: (§1) Three preferred peptides G11.46, G12.21 and G14.15, discussed above, were further tested for antimicrobial efficacy under various conditions using the 10% FCS/DMEM assay as described under CFU assay. The incubation times with the bacteria and peptide was three hours, at which time the bacteria were diluted and plated on agar. […] The MIC for each compound is highlighted.
Table 9 below repeats some data presented above in Tables 6, 7, and 8.

Salmonella = assay type: cell-based, S. typhimurium; details: pH 7.2
In short: (§2)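 First, peptides in 10 mM phosphate pH 7.2 with 0.03% LB meet bacteria (~5×10^6 CFU/ml). Second, incubation runs 3 h at 37 °C. Third, LB is added and plates grow overnight before OD600 reading.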

[1] = test system: human peripheral blood mononuclear cells (PBMC); test: Propidium iodide uptake in PBMC; assay type: cell-based
Excerpt: The second assay for effects on mammalian cells involved isolating human peripheral blood mononuclear cells (PBMC) and testing peptide induced uptake of propidium iodide (PI), a measure of membrane disruption. […] Thus, the vast majority of granulysin peptide derivatives are not toxic to mammalian cells even at high concentrations.

B. cereus = assay type: cell-based; details: pH 7.2
In short: as §2

E. coli DH5a = assay type: cell-based; details: DH5a; for E. coli DH5a MIC / IC50: pH 7.2
In short: as §2

Staphylococcus aureus = test: CFU assay in 10% FCS/DMEM; assay type: cell-based; details: 3 hrs
Method: (§3) The CFU assay is the “gold standard” for evaluating antibiotics. Briefly, bacteria are grown overnight in rich medium, such as LB, and then diluted and grown in log phase for 2-4 hours. Cultures are set up as above, with the initial culture media being 10 mM phosphate buffer/0.03% LB; DMEM or RPMI; or DMEM or RPMI plus 10% serum (fetal calf, human, or mouse). After various periods of time, but generally 3 hours or less, aliquots are removed, diluted in LB at various dilutions, and plated on LB agar plates. Plates are incubated overnight at 37° C. and counted on an automatic colony counter.
as §1

E. coli = test: CFU assay in 10% FCS/DMEM; assay type: cell-based; details: 3 hrs
Method: as §3, §1

Salmonella typhimurium = test: CFU assay in 10% FCS/DMEM; assay type: cell-based; details: 3 hrs
Method: as §3, §1

CSCC[C@@H](NC(=O)[C@@H](Cc1ccccc1)NC(=O)[C@@H](CCCNC(=N)N)NC(=O)[C@@H](CCCNC(=N)N)NC(=O)[C@@H](CO)NC(=O)[C@H](NC(=O)[C@@H](CCCNC(=N)N)NC(=O)[C@@H](CCCNC(=N)N)NC(=O)[C@@H](Cc1c[nH]c2ccccc12)NC(=O)[C@@H](CCCNC(=N)N)NC(=O)[C@@H](CO)NC(=O)[C@@H](CCCNC(=N)N)NC(=O)CN)C(C)C)C(=O)N[C@H](CCCNC(=N)N)C(=O)N[C@H](CCCNC(=N)N)C(=O)O [Peptide G14.15, grsrwrrvsrrfmrr] (H-G[dR][dS][dR][dW][dR][dR][dV][dS][dR][dR][dF][dM][dR][dR]-OH)
MIC (bacterial strains; ATCC#25922, 3 h): 0.63 to 1.25 µM
MIC (bacterial strains; ATCC#29213, 3 h): 10 µM (≈ 20.6 µg/mL)
MIC (bacterial strains; ATCC#53522, 3 h): 0.16 µM (≈ 0.33 µg/mL)
MIC (bacterial strains; SL1344, 3 h): 2.5 to 5 µM
IC50 (Salmonella): 150 nM
Salmonella MIC (Salmonella): 0.35 µM
PI uptake in normal human PBMC ([1]; 50 μM peptide, three hours): caused PI uptake in normal human PBMC
B. cereus MIC (B. cereus): 0.2 µM
IC50 (B. cereus): < 78 nM
MIC (E. coli DH5a): 0.3 µM (≈ 0.619 µg/mL)
E. coli DH5a MIC (E. coli DH5a): 0.1 µM
IC50 (E. coli DH5a): < 78 nM

gentamicin [reference compound]
MIC (bacterial strains; E. Coli (ATCC#25922), CFU Assay in 10% FCS/DMEM (3 hrs)): 1.25 µM
MIC (bacterial strains; Salmonella (SL1344), CFU Assay in 10% FCS/DMEM (3 hrs)): 2.5 to 5 µM
MIC (bacterial strains; Staph A (ATCC#29213), CFU Assay in 10% FCS/DMEM (3 hrs)): >1.25 µM
% Survival (CFU Assay) (Staphylococcus aureus; 0.04 μM): 90.73%
% Survival (CFU Assay) (Staphylococcus aureus; 0.08 μM): 78.94%
% Survival (CFU Assay) (Staphylococcus aureus; 0.16 μM): 59.49%
% Survival (CFU Assay) (Staphylococcus aureus; 0.32 μM): 37%
% Survival (CFU Assay) (Staphylococcus aureus; 0.63 μM): 28.51%
% Survival (CFU Assay) (Staphylococcus aureus; >1.25 μM): 17.1%
% Survival (CFU Assay) (E. coli; 0.08 μM): 117.89%
% Survival (CFU Assay) (E. coli; 0.16 μM): 110.6%
% Survival (CFU Assay) (E. coli; 0.32 μM): 87.76%
% Survival (CFU Assay) (E. coli; 0.63 μM): 17.05%
% Survival (CFU Assay) (E. coli; 1.25 μM): 0.21%
% Survival (CFU Assay) (E. coli; 2.5 μM): 0.052%
% Survival (CFU Assay) (Salmonella typhimurium; 0.04 μM): 119.73%
% Survival (CFU Assay) (Salmonella typhimurium; 0.08 μM): 103.72%
% Survival (CFU Assay) (Salmonella typhimurium; 0.16 μM): 105.73%
% Survival (CFU Assay) (Salmonella typhimurium; 0.32 μM): 93.27%
% Survival (CFU Assay) (Salmonella typhimurium; 0.63 μM): 70.15%
% Survival (CFU Assay) (Salmonella typhimurium; >1.25 μM): 29.7%

CSCC[C@@H](NC(=O)[C@H]1CCCN1C(=O)[C@@H](CCCNC(=N)N)NC(=O)[C@@H](CCCNC(=N)N)NC(=O)[C@@H](CO)NC(=O)[C@H](NC(=O)[C@@H](CCCNC(=N)N)NC(=O)[C@H](N)CCCNC(=N)N)C(C)C)C(=O)N[C@H](CCCNC(=N)N)C(=O)N[C@H](CCCNC(=N)N)C(=O)N[C@H](Cc1ccc(O)cc1)C(=O)N[C@H](CCCNC(=N)N)C(=O)N[C@H](CO)C(=O)N[C@H](CCCNC(=N)N)C(=O)N[C@H](CCCNC(=N)N)C(=O)N1CCC[C@@H]1C(=O)N[C@H](CCCNC(=N)N)C(=O)N[C@H](CCCNC(=N)N)C(=O)N[C@H](CC(C)C)C(=O)N[C@@H](C(=O)O)C(C)C [Peptide G12.21, rrvsrrpmrryrsrrprrlv] (H-[dR][dR][dV][dS][dR][dR][dP][dM][dR][dR][dY][dR][dS][dR][dR][dP][dR][dR][dL][dV]-OH)
MIC (bacterial strains; ATCC#25922, 3 h): 0.63 µM (≈ 1.71 µg/mL)
MIC (bacterial strains; ATCC#29213, 3 h): 0.32 to 0.63 µM
MIC (bacterial strains; ATCC#53522, 3 h): 0.02 µM (≈ 0.0542 µg/mL)
MIC (bacterial strains; SL1344, 3 h): 1.25 to 2.5 µM
IC50 (Salmonella): 210 nM
Salmonella MIC (Salmonella): 0.35 µM
toxicity against mammalian cells [1]: no toxicity
B. cereus MIC (B. cereus): 0.35 µM
IC50 (B. cereus): 210 nM
MIC (E. coli DH5a): 0.2 µM (≈ 0.542 µg/mL)
E. coli DH5a MIC (E. coli DH5a): 0.2 µM
IC50 (E. coli DH5a): < 78 nM

From patent US7745390B2, “Antimicrobial peptides” (priority 2005, dated 2010)
